Experimental data taken from patent US8946327B2, “Method for producing synthetic amylospheroid” (Tao Health Life Pharma., Ltd., priority 2011, dated 2015).

Test system: primary cultured neurons derived from hippocampus of mature rat
Experiment: Cytotoxicity test (Cell Death Detection ELISA, apoptosis)
Type: cell-based
Method: The formation of ASPD was confirmed by the following cytotoxicity test. A certain amount of ASPD was administered overnight to primary cultured neurons (more than 19 days after starting culture) derived from hippocampus of mature rat, and the neurotoxicity was measured in accordance with protocols using Cell Death Detection ELISA manufactured by Roche Diagnostics. This is an ELISA kit for quantitative detection of histone-complexed DNA fragmentation in the cells caused by apoptosis.

Molecule | cytotoxicity (neurotoxicity) (solution containing the same concentration of DEHP and not containing synthetic ASPD, data not shown) | cytotoxicity (neurotoxicity) (solution containing synthetic ASPD before purification, 1, 2 and 4 μM in terms of Aβ42, administered overnight, compared with Comparative Example 1 (DEHP−), FIG. 2)
CCCCC(CC)COC(=O)c1ccccc1C(=O)OCC(CC)CCCC (centres unmarked) [DEHP, bis(2-ethylhexyl)phthalate] | No cytotoxicity | 
Example 1: synthetic ASPD (amylospheroid) formed from Aβ42 by agitation using 65 mM DEHP/DMSO solution |  | significant cytotoxicity in a concentration-dependent manner
